In general, EC50 refers to the concentration needed to bring the measured effect to its halfway point.

EC50 data for nine compounds are collected here from US10730911B2, “Backbone-cyclized peptidomimetics with GLP-1R modulating activity” (POLYPHOR AG, priority 2015, dated 2020).

Where a SMILES comes first, the peptide text is derived from it. [ ]: non-standard residue; d: D form. Trp(5-OH) = N[C@@H](Cc1c[nH]c2ccc(O)cc12)C(=O)O; Tyr(Ph) = N[C@@H](Cc1ccc(Oc2ccccc2)cc1)C(=O)O; His(π-Bn) = N[C@@H](Cc1cncn1Cc1ccccc1)C(=O)O; Ac6c = NC1(C(=O)O)CCCCC1; Dpg = CCCC(N)(CCC)C(=O)O

T1 sequence (P43220 24-463): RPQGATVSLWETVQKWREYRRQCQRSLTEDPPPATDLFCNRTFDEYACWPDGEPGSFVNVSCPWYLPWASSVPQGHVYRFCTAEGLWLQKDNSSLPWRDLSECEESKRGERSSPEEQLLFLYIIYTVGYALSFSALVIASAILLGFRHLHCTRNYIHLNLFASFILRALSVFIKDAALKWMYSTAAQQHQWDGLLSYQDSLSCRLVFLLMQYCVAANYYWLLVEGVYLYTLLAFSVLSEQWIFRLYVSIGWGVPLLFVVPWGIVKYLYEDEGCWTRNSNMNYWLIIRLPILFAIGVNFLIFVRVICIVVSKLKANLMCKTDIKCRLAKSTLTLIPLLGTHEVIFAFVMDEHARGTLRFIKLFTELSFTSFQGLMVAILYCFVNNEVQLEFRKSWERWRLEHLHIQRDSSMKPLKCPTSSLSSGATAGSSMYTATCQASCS

This test concerns the target T1, human glucagon-like peptide-1 receptor (GLP-1R) (Homo sapiens, UniProt P43220).
T1 construct: host or cells: CHO chAMPion cells
Nature of the test: Human GLP-1 receptor cell-based assay (flash luminescence, Target Activation phase). The conditions noted are these: CHO chAMPion cells stably co-expressing human GLP-1R, Photina and cAMP-activated calcium channel; agonist activity; normalization by forskolin at 10 μM; ^a) values from single experiment; read-out: EC50 (μM) Target Activation (TA). A digest of the protocol: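 CHO cells co-expressing human GLP-1R, photoprotein and a cAMP-gated Ca2+ channel, preloaded 4 h with coelenterazine and 500 μM IBMX. Compounds at 8 concentrations from 50 μM, quadruplicate; 30 min later 10 mM CaCl2 added and flash luminescence read. EC50 normalized to 10 μM forskolin or 3.16 nM GLP-1.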
Consider `CC(C)C[C@@H]1NC(=O)[C@H](CCC(=O)O)NC(=O)[C@H](Cc2ccccc2)NC(=O)C2(CCCCC2)NC(=O)[C@H]2CCCN2C(=O)[C@H](Cc2cncn2Cc2ccccc2)NC(=O)[C@H](CCC(=O)O)NC(=O)[C@H](Cc2c[nH]c3ccccc23)NC(=O)[C@H](C)NC(=O)[C@H](Cc2ccc(O)cc2)NC1=O` [compound 36, cyclo(-Phe-Glu-Leu-Tyr-Ala-Trp-Glu-His(Bn)-^DPro-Chx-)] (cyclo(FELYAWE[His(π-Bn)][dP][Ac6c])), for which the 50% effective concentration (EC50) turned out to be 0.85 µM.

On to `CC(C)C[C@@H]1NC(=O)[C@H](CCC(=O)O)NC(=O)[C@H](Cc2ccccc2)NC(=O)C2(CCCCC2)NC(=O)[C@H]2CCCN2C(=O)[C@H](Cc2c[nH]cn2)NC(=O)[C@H](CCC(=O)O)NC(=O)[C@H](Cc2c[nH]c3ccccc23)NC(=O)[C@H](C)NC(=O)[C@H](Cc2ccc(O)cc2)NC1=O` [compound 39, cyclo(-Phe-Glu-Leu-Tyr-Ala-Trp-G lu-H is-^DP ro-Chx-)] (cyclo(FELYAWEH[dP][Ac6c])), for which the 50% effective concentration (EC50) is 1 ± 0.1 µM.

As for `CCCC1(CCC)NC(=O)[C@H]2CCCN2C(=O)[C@H](Cc2ccccc2)NC(=O)[C@H](CCC(=O)O)NC(=O)[C@H](Cc2c[nH]c3ccccc23)NC(=O)[C@H](C)NC(=O)[C@H](CC(C)C)NC(=O)[C@H](CC(C)C)NC(=O)[C@H](CCC(=O)O)NC(=O)[C@H](Cc2ccccc2)NC1=O` [compound 26, cyclo(-Phe-Glu-Leu-Leu-Ala-Trp-Glu-Phe-^DPro-Dpg-)] (cyclo(FELLAWEF[dP][Dpg])), the EC50 came to 1 ± 0.5 µM.

Regarding `C[C@@H]1NC(=O)[C@H](Cc2ccc(O)cc2)NC(=O)[C@H](CCC(N)=O)NC(=O)[C@H](Cc2ccccc2)NC(=O)[C@H](Cc2ccccc2)NC(=O)C2(CCCCC2)NC(=O)[C@H]2CCCN2C(=O)[C@H](CCCNC(=N)N)NC(=O)[C@H](CCC(=O)O)NC(=O)[C@H](Cc2c[nH]c3ccccc23)NC1=O` [compound 10, cyclo(-Phe-Phe-Gln-Tyr-Ala-Trp-Glu-Arg-^DPro-Chx-)] (cyclo(FFQYAWER[dP][Ac6c])), the concentration for a half-maximal effect (EC50) turned out to be 0.39 ± 0.23 µM.

For the compound `CC(C)C[C@@H]1NC(=O)[C@H](CC(C)C)NC(=O)[C@H](CCC(=O)O)NC(=O)[C@H](Cc2ccccc2)NC(=O)C2(CCCCC2)NC(=O)[C@H]2CCCN2C(=O)[C@H](Cc2ccccc2)NC(=O)[C@H](CCC(=O)O)NC(=O)[C@H](Cc2c[nH]c3ccccc23)NC(=O)[C@H](C)NC1=O` [Ex. 43, cyclo(-Phe-Glu-Leu-Leu-Ala-Trp-Glu-Phe-^DPro-Chx-)] (cyclo(FELLAWEF[dP][Ac6c])), the EC50 amounted to 4.5 ± 2.6 µM.

Turning to `C[C@@H]1NC(=O)[C@H](Cc2ccc(O)cc2)NC(=O)[C@H](CCC(N)=O)NC(=O)[C@H](Cc2ccc(Oc3ccccc3)cc2)NC(=O)[C@H](Cc2ccccc2)NC(=O)C2(CCCCC2)NC(=O)[C@H]2CCCN2C(=O)[C@H](CCCNC(=N)N)NC(=O)[C@H](CCC(=O)O)NC(=O)[C@H](Cc2c[nH]c3ccccc23)NC1=O` [compound 6, cyclo(-Phe-Tyr(Ph)-Gln-Tyr-Ala-Trp-Glu-Arg-^DPro-Chx-)] (cyclo(F[Tyr(Ph)]QYAWER[dP][Ac6c])), the concentration for a half-maximal effect (EC50) came out at 0.19 ± 0.12 µM.

Take `C[C@@H]1NC(=O)[C@H](Cc2ccc(O)cc2)NC(=O)[C@H](CCC(N)=O)NC(=O)[C@H](Cc2cncn2Cc2ccccc2)NC(=O)[C@H](Cc2ccccc2)NC(=O)C2(CCCCC2)NC(=O)[C@H]2CCCN2C(=O)[C@H](Cc2ccc(O)cc2)NC(=O)[C@H](CCC(=O)O)NC(=O)[C@H](Cc2c[nH]c3ccccc23)NC1=O` [Ex. 4, cyclo(-Phe-His(Bn)-Gln-Tyr-Ala-Trp-Glu-Tyr-^DPro-Chx-)] (cyclo(F[His(π-Bn)]QYAWEY[dP][Ac6c])): the EC50 was found to be 0.09 ± 0.02 µM.

On to `CC(C)C[C@@H]1NC(=O)[C@H](CCC(=O)O)NC(=O)[C@H](Cc2ccccc2)NC(=O)C2(CCCCC2)NC(=O)[C@H]2CCCN2C(=O)[C@H](Cc2ccc(O)cc2)NC(=O)[C@H](Cc2c[nH]c3ccc(O)cc23)NC(=O)[C@H](Cc2c[nH]c3ccccc23)NC(=O)[C@H](C)NC(=O)[C@H](Cc2ccc(O)cc2)NC1=O` [compound 28, cyclo(-Phe-Glu-Leu-Tyr-Ala-Trp-Trp(5OH)-Tyr-^DPro-Chx-)] (cyclo(FELYAW[Trp(5-OH)]Y[dP][Ac6c])), for which the EC50 is 1.2 ± 0.9 µM.

Regarding `CC(C)C[C@@H]1NC(=O)[C@H](CCC(=O)O)NC(=O)[C@H](Cc2ccccc2)NC(=O)C2(CCCCC2)NC(=O)[C@H]2CCCN2C(=O)[C@H](Cc2ccccc2)NC(=O)[C@H](CCC(=O)O)NC(=O)[C@H](Cc2c[nH]c3ccccc23)NC(=O)[C@H](C)NC(=O)[C@H](Cc2ccc(O)cc2)NC1=O` [compound 31, cyclo(-Phe-Glu-Leu-Tyr-Ala-Trp-Glu-Phe-^DPro-Chx-)] (cyclo(FELYAWEF[dP][Ac6c])), the EC50 was 0.68 µM.
